From patent EP0672658B1, “Antithrombotic agents” (priority 1994, dated 1995)
Structures can show the parent of a compound that is named as a salt.

Key:
human or animal plasma [1] = experiment: Anticoagulation determination in plasma: thrombin time (TT); format: biochemical; conditions: concentration doubling thrombin time
In short: (§1)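 Compounds spiked over a concentration range into citrated human, dog or rat plasma. PT used Thromboplastin-C; APTT used Actin reagent 120 s then 0.02 M CaCl2; TT used bovine thrombin 10 NIH units/mL. Concentration doubling clotting time estimated by linear extrapolation.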

human or animal plasma [2] = experiment: Anticoagulation determination in plasma: prothrombin time (PT); format: biochemical; conditions: concentration doubling prothrombin time
In short: as §1

t-PA = t-PA (Homo sapiens, UniProt P00750); experiment: biochemical; conditions: read-out: Kass t-PA (converted)
Chain of t-PA (P00750 36-562): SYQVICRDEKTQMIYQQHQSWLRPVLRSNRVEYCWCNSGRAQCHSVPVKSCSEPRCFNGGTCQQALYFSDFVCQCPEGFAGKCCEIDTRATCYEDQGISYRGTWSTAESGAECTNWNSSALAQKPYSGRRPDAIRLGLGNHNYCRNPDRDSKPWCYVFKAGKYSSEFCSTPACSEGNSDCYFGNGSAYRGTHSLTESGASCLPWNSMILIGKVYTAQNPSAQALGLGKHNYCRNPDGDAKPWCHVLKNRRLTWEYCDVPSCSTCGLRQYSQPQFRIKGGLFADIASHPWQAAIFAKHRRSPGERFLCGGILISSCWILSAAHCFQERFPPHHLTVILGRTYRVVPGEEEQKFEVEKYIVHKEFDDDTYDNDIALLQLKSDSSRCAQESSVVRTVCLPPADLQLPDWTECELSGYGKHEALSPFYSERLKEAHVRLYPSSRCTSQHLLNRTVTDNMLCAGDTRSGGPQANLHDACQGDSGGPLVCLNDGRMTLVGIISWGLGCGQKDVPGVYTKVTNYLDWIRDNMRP
Procedure: (§2) By substantially following the procedures described above for human thrombin, and using other human blood coagulation system serine proteases and proteases of the fibrinolytic system with the appropriate chromogenic substrates, identified below, selectivity of the compounds of the present invention with respect to the coagulation factor serine proteases and with respect to the fibrinolytic system serine proteases are evaluated as well as their substantial lack of interference with serine proteases of the fibrinolytic system. Thrombin inhibitors preferably should spare fibrinolysis induced by urokinase, tissue plasminogen activator (t-PA) and streptokinase. This would be important to the therapeutic use of such agents as an adjunct to streptokinase, t-PA or urokinase thrombolytic therapy and to the use of such agents as an endogenous fibrinolysis-sparing (with respect to t-PA and urokinase) antithrombotic agent. In addition to the lack of interference with the amidase activity of the fibrinolytic proteases, such fibrinolytic system sparing can be studied by the use of human plasma clots and their lysis by the respective fibrinolytic plasminogen activators.
(§3) Human plasmin is purchased from Boehringer Mannheim, Indianapolis, Indiana; nt-PA is purchased as single chain activity reference from American Diagnostica, Greenwich, Connecticut; modified-t-PA6 (mt-PA6) is prepared at Eli Lilly and Company by procedure known in the art (See, Burck, et al., J. Biol. Chem., 265, […] (1990). Plasmin chromogenic substrate H-D-Val-Leu-Lys-p-nitroanilide and tissue plasminogen activator (t-PA) substrate H-D-Ile-Pro-Arg-p-nitroanilide are purchased from Kabi Vitrum, Stockholm, Sweden.

Plasmin = molecular target: T1, Plasmin (Homo sapiens, UniProt P00747); experiment: biochemical; conditions: read-out: Kass Plasmin (converted)
T1 construct: Human plasmin is purchased; purchased Boehringer Mannheim, Indianapolis, Indiana
T1 sequence (P00747 581-810 limits assumed): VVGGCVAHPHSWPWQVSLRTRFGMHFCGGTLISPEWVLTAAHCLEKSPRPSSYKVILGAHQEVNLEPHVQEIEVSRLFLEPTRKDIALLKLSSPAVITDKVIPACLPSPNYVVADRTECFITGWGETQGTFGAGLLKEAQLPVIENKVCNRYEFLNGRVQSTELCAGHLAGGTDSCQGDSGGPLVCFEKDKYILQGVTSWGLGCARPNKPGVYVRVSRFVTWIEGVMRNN
T1 sequence (P00747 97-580 partner limits assumed): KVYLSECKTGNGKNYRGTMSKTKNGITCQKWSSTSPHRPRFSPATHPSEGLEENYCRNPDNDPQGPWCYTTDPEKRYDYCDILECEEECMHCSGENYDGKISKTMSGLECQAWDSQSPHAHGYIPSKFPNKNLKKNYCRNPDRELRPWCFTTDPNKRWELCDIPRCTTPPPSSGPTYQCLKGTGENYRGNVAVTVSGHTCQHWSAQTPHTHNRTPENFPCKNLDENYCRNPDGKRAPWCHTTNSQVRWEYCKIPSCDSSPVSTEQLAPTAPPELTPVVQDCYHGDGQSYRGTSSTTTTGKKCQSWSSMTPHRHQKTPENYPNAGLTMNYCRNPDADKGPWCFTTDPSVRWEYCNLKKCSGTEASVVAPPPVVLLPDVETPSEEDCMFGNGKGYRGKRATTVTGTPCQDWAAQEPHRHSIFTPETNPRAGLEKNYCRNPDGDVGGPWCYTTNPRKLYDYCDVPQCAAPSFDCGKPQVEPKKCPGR
Procedure: as §2, §3

Trypsin = molecular target: T2, Trypsin (Bos taurus, UniProt P00760); experiment: biochemical; set-up: species or system Bovine; conditions: read-out: Kass Trypsin (converted)
T2 sequence (P00760 24-246): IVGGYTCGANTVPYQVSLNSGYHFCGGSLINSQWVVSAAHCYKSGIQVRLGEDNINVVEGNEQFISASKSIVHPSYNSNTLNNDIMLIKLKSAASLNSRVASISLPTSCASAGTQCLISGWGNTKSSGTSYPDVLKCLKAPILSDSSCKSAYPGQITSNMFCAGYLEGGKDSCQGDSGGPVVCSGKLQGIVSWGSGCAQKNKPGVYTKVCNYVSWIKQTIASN
In short: (§4)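 Bovine trypsin and human factor Xa amidase activity measured chromogenically, following the human thrombin procedure. Substrates: N-Benzoyl-Ile-Glu-Gly-Arg-p-nitroanilide for factor Xa and N-Benzoyl-Phe-Val-Arg-p-nitroanilide for trypsin. Used for selectivity profiling.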

factor Xa = factor Xa (Homo sapiens, UniProt P00742); experiment: biochemical; conditions: read-out: Kass Xa (converted)
Chain of factor Xa (P00742 235-488 limits assumed): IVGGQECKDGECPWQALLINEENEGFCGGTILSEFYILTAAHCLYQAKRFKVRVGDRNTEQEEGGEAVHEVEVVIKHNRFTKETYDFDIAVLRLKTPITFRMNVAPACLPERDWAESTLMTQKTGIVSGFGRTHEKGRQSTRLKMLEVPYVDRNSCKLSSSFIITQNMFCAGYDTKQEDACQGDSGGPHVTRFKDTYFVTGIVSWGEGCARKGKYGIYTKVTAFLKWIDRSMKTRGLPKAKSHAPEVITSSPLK
Chain of factor Xa (P00742 41-179 partner limits assumed): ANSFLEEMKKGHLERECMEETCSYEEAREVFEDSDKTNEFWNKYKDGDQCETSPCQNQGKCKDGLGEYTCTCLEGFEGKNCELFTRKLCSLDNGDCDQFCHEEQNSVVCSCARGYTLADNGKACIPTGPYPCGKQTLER
In short: as §4

human or animal plasma [3] = experiment: Anticoagulation determination in plasma: activated partial thromboplastin time (APTT); format: biochemical; conditions: concentration doubling activated partial thromboplastin time
In short: as §1

Human Thrombin = Human Thrombin (Homo sapiens, UniProt P00734); experiment: biochemical; conditions: read-out: Kass Human Thrombin (converted)

Row | Compound | Human Plasma Anticoagulation 2x Clotting time (ng/mL) TT (human or animal plasma [1]) | Human Plasma Anticoagulation 2x Clotting time (ng/mL) PT (human or animal plasma [2]) | Kd (t-PA) | Kd (Plasmin) | Kd (Trypsin) | Kd (factor Xa) | Human Plasma Anticoagulation 2x Clotting time (ng/mL) APTT (human or animal plasma [3]) | Kd (Human Thrombin)
1 | N=C(N)c1ccc(CNC(=O)[C@@H]2CCCN2C(=O)[C@@H](Cc2ccccc2)NCC(=O)O)cc1 [Example 46, HOOCCH2-D-Phe-Pro-p-NHCH2C6H4C(NH)NH2·HCl] | 2. ng/mL | 77 ng/mL | 100 µM | 7.69 µM | 0.0208 µM | 14.3 µM | 67 ng/mL | 0.00417 µM
2 | CCS(=O)(=O)N[C@H](Cc1ccccc1)C(=O)N1CCC[C@H]1C(=O)NCCc1cccc(C(=N)N)c1 [Example 27, EtSO2-D-Phe-Pro-m-NHCH2CH2-C6H4C(=NH)NH2·HCl] | 1,940 ng/mL | 27,000 ng/mL | 50 µM | > 1000 µM | 50 µM | 50 µM | 27,800 ng/mL | 3.45 µM
3 | CCS(=O)(=O)N[C@H](Cc1ccccc1)C(=O)N1CCC[C@H]1C(=O)NCc1ccc(NC(=N)N)cc1 [Example 34, EtSO2-D-Phe-Pro-p-NHCH2C6H4NHC(NH)NH2·HCl] | 530 ng/mL | 5,500 ng/mL | 100 µM | 100 µM | 2.04 µM | > 1000 µM | 4,900 ng/mL | 1.54 µM
4 | N=C(N)c1ccc(CNC(=O)[C@@H]2C[C@H](Oc3ccccc3)CN2C(=O)[C@H]2CCCCN2)cc1 [Example 22, D-hPro-Pro(4-cis-PhO)-p-NHCH2-C6H4C(NH)NH2·2HCl] | 170 ng/mL | 1,000 ng/mL | 250 µM | 23.8 µM | 0.118 µM | 23.3 µM | 2,300 ng/mL | 0.333 µM
5 | N=C(N)c1ccc(CCNC(=O)[C@@H]2CCCN2C(=O)[C@@H]2NCC[C@@H]3CCCC[C@@H]32)cc1 [Example 28, 1-Piq-Pro-p-NHCH2CH2-C6H4C(=NH)NH2·2HCl] | 520 ng/mL | 8,300 ng/mL | > 1000 µM | > 1000 µM | 9.09 µM | 100 µM | 8,100 ng/mL | 1.05 µM
6 | CCS(=O)(=O)N[C@H](Cc1ccccc1)C(=O)N1CCC[C@H]1C(=O)NCCCc1cccc(C(=N)N)c1 [Example 31, EtSO2-D-Phe-Pro-m-NHCH2CH2CH2-C6H4C(=NH)NH2·HCl] | 10,800 ng/mL | 30,000 ng/mL | > 1000 µM | > 1000 µM | 20 µM | 7.14 µM | 34,500 ng/mL | 14.3 µM
7 | N=C(N)c1ccc(CNC(=O)[C@@H]2CCCN2C(=O)[C@@H]2NCC[C@@H]3CCCC[C@@H]32)cc1 [Example 18, 1-Piq-Pro-p-NHCH2C6H4C(NH)NH2·2HCl] | 7 ng/mL | 170 ng/mL | 106 µM | 11.8 µM | 0.0714 µM | 4.76 µM | 79 ng/mL | 0.00556 µM
8 | CCS(=O)(=O)N[C@H](Cc1ccccc1)C(=O)N1CCC[C@H]1C(=O)NCc1ccc(C(=N)N)cc1 [Example 23, EtSO2-D-Phe-Pro-p-NHCH2-C6H4C(=NH)NH2·HCl] | 7 ng/mL | 120 ng/mL | 3.23 µM | 2.27 µM | 0.0476 µM | 7.14 µM | 86 ng/mL | 0.0013 µM
9 | N=C(N)c1ccc(CNC(=O)CN(CCc2ccccc2)C(=O)[C@H]2CCCCN2)cc1 [Example 21, D-hPro-N(PhCH2CH2)Gly-p-NHCH2-C6H4C(NH)NH2·2HCl] | 160 ng/mL | 1,000 ng/mL | 500 µM | 32.3 µM | 1.04 µM | 1.61 µM | 2,000 ng/mL | 0.278 µM
10 | N=C(N)N1CCC(CNC(=O)[C@@H]2CCCN2C(=O)[C@@H](CC2CCCCC2)NCC(=O)O)CC1 [Example 56, HO2CCH2-D-Cha-Pro-4-NHCH2-1-amidinopiperidine·HCl] | 5 ng/mL | 200 ng/mL | > 1000 µM | 100 µM | 0.278 µM | 5 µM | 160 ng/mL | 0.00204 µM
11 | N=C(N)c1cccc(CCCNC(=O)[C@@H]2CCCN2C(=O)[C@@H]2NCC[C@@H]3CCCC[C@@H]32)c1 [Example 33, 1-Piq-Pro-m-NHCH2CH2CH2-C6H4C(=NH)NH2·HCl] | 18,900 ng/mL | 70,900 ng/mL | > 1000 µM | > 1000 µM | 50 µM | 25 µM | 59,300 ng/mL | 25 µM
12 | N=C(N)N1CCC(CCNC(=O)[C@@H]2CCCN2C(=O)[C@@H](CC2CCCCC2)NCC(=O)O)CC1 [Example 57, HO2CCH2-D-Cha-Pro-4-NHCH2CH2-1-amidinopiperidine·HCl] | 14 ng/mL | 340 ng/mL | > 1000 µM | 100 µM | 4.17 µM | 100 µM | 360 ng/mL | 0.0256 µM
13 | CCS(=O)(=O)N[C@H](Cc1ccccc1)C(=O)N1CCC[C@H]1C(=O)NCc1cccc(NC(=N)N)c1 [Example 36, EtSO2-D-Phe-Pro-m-NHCH2C6H4NHC(NH)NH2·HCl] | 7,700 ng/mL | >91,000 ng/mL | > 1000 µM | > 1000 µM | 100 µM | > 1000 µM | >91,000 ng/mL | 16.7 µM
14 | CCS(=O)(=O)N[C@@H](C(=O)N1[C@H](C(=O)NCc2ccc(C(=N)N)cc2)C[C@@H]2CCCC[C@@H]21)c1ccccc1 (relative stereo) [Example 44, EtSO2-Phg-cis-Ohi-p-NHCH2C6H4C(NH)NH2. HCl] | 4. ng/mL | 170 ng/mL | 25 µM | 0.556 µM | 0.000385 µM | 1.52 µM | 100 ng/mL | 0.00159 µM
15 | N=C(N)c1ccc(CNC(=O)[C@@H]2CCCN2C(=O)[C@H]2C[C@H]3CCCC[C@H]3CN2)cc1 [Example 19, D-3-Piq-Pro-p-NHCH2C6H4C(NH)NH2·3HCl] | 58 ng/mL | 540 ng/mL | 179 µM | 6.25 µM | 0.0244 µM | 7.14 µM | 300 ng/mL | 0.0909 µM
16 | N=C(N)c1ccc(CNC(=O)[C@@H]2CCCN2C(=O)[C@H]2CCCCN2)cc1 [Example 17, D-hPro-Pro-p-NHCH2C6H4C(NH)NH2·HCl] | 26 ng/mL | 400 ng/mL | 294 µM | 41.7 µM | 0.263 µM | 20.4 µM | 370 ng/mL | 0.0303 µM
